Measured values as given in the supplement of paper PMC5412046.
Counter-ions that a name gives are not always drawn.

Key:
[1] = system: SB.mhdgc-1; experiment: viability at highest tested concentration (MAXR) relative to DMSO; higher = less cytotoxic; settings: SB.mhdgc-1 (hereditary c.1380delA CDH1 gastric cancer)
Method in brief: (§1)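 Viability values are normalised to DMSO and given either at the highest concentration or as trapezoidal area under the curve. The assay used 500 hereditary or sporadic patient-derived gastric cancer cells in 5 μL medium per 1536 well, dosed by pintool with 23 nL of compound in DMSO at 11 threefold-diluted concentrations. CellTiter-Glo was added 48 h later for 30 min at room temperature, followed by luminescence reading on a ViewLux.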

[2] = system: SB.msgc-1; experiment: as above; settings: SB.msgc-1 (sporadic gastric cancer)
Method in brief: as §1

[3] = system: SB.mhdgc-1; experiment: area under the dose-response curve of % viability (trapezoidal, 11 doses) (% viability x log10 concentration); higher = less cytotoxic; settings: SB.mhdgc-1 (hereditary c.1380delA CDH1 gastric cancer)
Method in brief: as §1

[4] = system: SB.msgc-1; experiment: as above; settings: SB.msgc-1 (sporadic gastric cancer)
Method in brief: as §1

| SMILES | viability [1] | viability [2] | area under the dose-response curve [3] | area under the dose-response curve [4] |
| --- | --- | --- | --- | --- |
| CCC(=O)O[C@@]1([C@H](C)C[C@H]2[C@@H]3C[C@H](F)\C4=C\C(=O)\C=C/[C@]4(C)[C@@]3(F)[C@@H](O)C[C@]12C)C(=O)SCF [Fluticasone propionate] (top concentration 46.0829 µM) | 32.2% | 41.4% | 519 | 541 |
| C[C@]12CCC3c4ccc(O)cc4CCC3C1CCC2=O (some centres undefined) [Estrone] (top concentration 46.0829 µM) | 87.7% | 103% | 449 | 522 |
| Cn1cc(-c2ccc3nnc(Sc4ccc5ncccc5c4)n3n2)cn1 [SGX-523] (top concentration 46.0829 µM) | 32.5% | 61.2% | 483 | 502 |
| CCC[S+](=O)([O-])Nc1ccc(F)c(C(=O)c2c[nH]c3ncc(-c4ccc(Cl)cc4)cc23)c1F [Vemurafenib] (top concentration 46.0829 µM) | 52.4% | 38% | 507 | 537 |
| C#Cc1cccc(Nc2ncnc3cc(OC)c(OCCCCCCC(=O)NO)cc23)c1 [CUDC-101] (top concentration 46.0829 µM) | 40.3% | 6.59% | 281 | 224 |
| N#CC1(c2ccc(NC(=O)c3cccnc3NCc3ccncc3)cc2)CCCC1 [Apatinib] (top concentration 46.0829 µM) | 76.5% | 57.4% | 528 | 513 |
| CO[C@H]1CCC(O[C@H]2C[C@H]([C@]3(C)CC[C@]4(C[C@H](O)[C@@H](C)[C@@H]([C@@H](C)/C=C(\C)C(=O)[C@H](C)C[C@H](C)C(=O)[O][Na])O4)O3)O[C@]3(O[C@@H]([C@H]4O[C@@](O)(CO)[C@H](C)C[C@@H]4C)C[C@@H]3C)[C@@H]2C)O[C@@H]1C (some centres undefined) [Nanchangmycin] (top concentration 46.0829 µM) | 2.69% | 1.92% | 303 | 289 |
| COc1cc2nc(N3CCN(C(=O)C4COc5ccccc5O4)CC3)nc(N)c2cc1OC (centres undefined) [Doxazosin mesylate] (top concentration 46.0829 µM) | 55.6% | 104% | 569 | 568 |
| CC(=O)N(C)C1(c2ccccc2)CCN(CCC[C@]2(c3ccc(Cl)c(Cl)c3)CCCN(C(=O)c3ccccc3)C2)CC1 [Osanetant] (top concentration 46.0829 µM) | 3.99% | 15.8% | 468 | 469 |
| O=C(Nc1nc2cccc(-c3ccc(CN4CC[S+](=O)([O-])CC4)cc3)n2n1)C1CC1 [GPLG-0634] (top concentration 46.0829 µM) | 41.3% | 50.3% | 525 | 529 |
| CN(C)CCCNC(=O)c1ccc(-c2cc(O)c3ncccc3c2)cc1 (top concentration 46.0829 µM) | 24.3% | 90.9% | 545 | 528 |
| CC1=CC(=CC(=C1C\C2=N\CCN2)C)C(C)(C)C [Xylometazoline hydrochloride] (top concentration 46.0829 µM) | 63.3% | 90.3% | 460 | 539 |
| CCNc1cc(NC2CCC(O)CC2)nc(Nc2ccc3c(ccn3Cc3ccccc3)c2)n1 (centres undefined) [Cdk4/6 Inhibitor IV] (top concentration 46.0829 µM) | 1.36% | 5.19% | 408 | 487 |
| COC1=NC(=NC(=C1N\C2=N\CCN2)Cl)C [Moxonidine hydrochloride hydrate] (top concentration 46.0829 µM) | 77.7% | 122% | 430 | 489 |
| CCC\C1=C\C(=O)NC(=S)N1 [Propylthiouracil] (top concentration 46.0829 µM) | 64.9% | 112% | 545 | 584 |
| Cc1nc(Nc2ncc(C(=O)Nc3c(C)cccc3Cl)s2)cc(N2CCN(CCO)CC2)n1 [Dasatinib] (top concentration 46.0829 µM) | 53.2% | 37.8% | 416 | 398 |
| CC\1=C/C=C\C=[N]1[Pt](N)(Cl)Cl [Picoplatin] (top concentration 46.0829 µM) | 78% | 106% | 538 | 534 |
| CN(C(Cc1ccc(O[S+](=O)([O-])c2cccc3cnccc23)cc1)C(=O)N1CCN(c2ccccc2)CC1)[S+](=O)([O-])c1cccc2cnccc12 (centres undefined) [KN-62] (top concentration 46.0829 µM) | 36.3% | 54.6% | 374 | 459 |
| COC1=CC=C2[N](CCCN(C)C)C=C(C2=C1)C/3=C(/C(=O)NC3=O)C4=C[NH]C5=C4C=CC=C5 [G?-6983] (top concentration 46.0829 µM) | 67.4% | 60.8% | 354 | 496 |
| Nc1nc(N)c(N=O)c(OCC2CCCCC2)n1 [NU-6027] (top concentration 46.0829 µM) | 53.7% | 69.3% | 432 | 505 |
| O=c1[nH]c(=O)n([C@H]2C[C@H](O)[C@@H](CO)O2)cc1/C=C/Br [Brivudine] (top concentration 46.0829 µM) | 121% | 112% | 563 | 487 |
| CCCC[S+](=N)([O-])CCC(N)C(=O)O (centres undefined) [Buthionine sulphoximine] (top concentration 46.0829 µM) | 111% | 103% | 517 | 524 |
| O=C1Nc2ccccc2/C1=C1\Nc2ccccc2C1=O [Indirubin] (top concentration 46.0829 µM) | 48% | 57.6% | 345 | 473 |

| SMILES | viability [1] | viability [2] | area under the dose-response curve [3] | area under the dose-response curve [4] |
| --- | --- | --- | --- | --- |
| CC1(C)CNc2cc(NC(=O)c3cccnc3NCc3ccncc3)ccc21 [Motesanib] (top concentration 46.0829 µM) | 49.8% | 68.8% | 394 | 463 |
| CC1(N2CCC(n3c([C@@H]4CCCNC4)nc4ccccc43)CC2)CCCCCCC1 [MCOPPB] (top concentration 46.0829 µM) | 4.64% | 78.1% | 451 | 530 |
| C[C@H]1O[C@H]([C@H](O)[C@@H]1O)N2\C=C(F)/C(=O)NC2=O [Doxifluridine] (top concentration 46.0829 µM) | 58.7% | 65.6% | 457 | 567 |
| Cc1cc(C(=O)N2CCN(c3cccc(Cl)c3)CC2)n(-c2ccccc2)n1 [XRP-44X] (top concentration 46.0829 µM) | 46.5% | 35.7% | 452 | 471 |
| CN1CCc2c(c3ccccc3n2Cc2ccc(C(=O)NO)cc2)C1 [Tubastatin A] (top concentration 46.0829 µM) | 1.43% | 3.16% | 384 | 430 |
| CC(=O)O.Cc1c(-c2ccc(O)cc2)n(Cc2ccc(OCCN3CCCCCC3)cc2)c2ccc(O)cc12 [Bazedoxifene] (top concentration 46.0829 µM) | 85.4% | 61.8% | 561 | 293 |
| NC(CO)C(=O)NNCc1ccc(O)c(O)c1O (centres undefined) [Benserazide] (top concentration 46.0829 µM) | 46.8% | 104% | 558 | 520 |
| CCOC(=O)c1c(/C(C#N)=C\N)c2ccc(Cl)c(Cl)c2n1C [KH-CB19] (top concentration 46.0829 µM) | 52.1% | 96% | 416 | 531 |
| CC1(C)CCC(C)(C)c2cc(NC(=O)c3ccc(C(=O)O)cc3)ccc21 [Tamibarotene] (top concentration 46.0829 µM) | 104% | 61.8% | 561 | 439 |
| CN(c1nccc(=O)[nH]1)C1CCN(c2nc3ccccc3n2Cc2ccc(F)cc2)CC1 [Mizolastine] (top concentration 46.0829 µM) | 64.6% | 31.2% | 519 | 467 |
| Nc1ccccc1NC(=O)c1ccc(CNC(=O)OCc2cccnc2)cc1 [Entinostat] (top concentration 46.0829 µM) | 44.9% | 11% | 506 | 390 |
| CCNC(=O)Nc1ccc2ncc(Nc3ccc(C)cc3)nc2n1 (top concentration 46.0829 µM) | 20.8% | 27% | 307 | 347 |
| COc1cc2ncnc(Nc3cc(Br)c(O)c(Br)c3)c2cc1OC [WHI-P97] (top concentration 46.0829 µM) | 54.9% | 33.9% | 279 | 294 |
| COc1ccc(C(=O)CC(=O)c2ccc(C(C)(C)C)cc2)cc1 [Avobenzone] (top concentration 46.0829 µM) | 43.2% | 22.9% | 394 | 417 |
| CCC[C@@H]1C[C@@H](C(=O)N[C@@H]([C@H]2O[C@H](SC)[C@H](O)[C@@H](O)[C@H]2O)[C@@H](C)O)N(C)C1.Cl [Lincomycin  hydrochloride] (top concentration 46.0829 µM) | 85.3% | 94% | 525 | 548 |
| NC\1=N\C(=O)N(\C=N1)[C@H]2C[C@H](O)[C@@H](CO)O2 [Decitabine] (top concentration 46.0829 µM) | 63.1% | 98.7% | 481 | 480 |
| COC1=C2OC(=O)\C=C/C2=CC3=C1OC=C3 [Methoxsalen] (top concentration 46.0829 µM) | 101% | 105% | 476 | 510 |
| COc1ccc2c(c1OC)C(=O)O[C@H]2[C@H]1c2c(cc3c(c2OC)OCO3)CCN1C [Noscapine] (top concentration 46.0829 µM) | 31.9% | 45% | 418 | 392 |
| CN[S+](=O)([O-])CCc1ccc2[nH]cc(C3CCN(C)CC3)c2c1 [Naratriptan hydrochloride] (top concentration 46.0829 µM) | 16.1% | 17.5% | 282 | 252 |
| CC(C)[C@H](N)C(=O)OCCOC[N]1C=NC2=C1\N=C(N)/NC2=O [Valaciclovir] (top concentration 46.0829 µM) | 110% | 94.6% | 528 | 508 |
| COc1ccc(Cn2ccc3ccc(C(=O)NO)cc32)cc1 (top concentration 46.0829 µM) | 101% | 78.3% | 559 | 493 |
| CC(C)(O)c1cc2nc(-c3cnc(N)nc3)nc(N3CCOCC3)c2s1 [GNE-493] (top concentration 46.0829 µM) | 32.3% | 43.9% | 319 | 384 |
| Nc1nc(-c2nn(Cc3ccccc3F)c3ncccc23)nc(N)c1N1CCOCC1 [BAY-41-8543] (top concentration 46.0829 µM) | 82.3% | 73% | 568 | 503 |
